We go through 19 compounds from patent US11578054B2, “Compounds useful as immunomodulators” (Bristol-Myers Squibb Company, priority 2018, dated 2023).

Structures are written as SMILES.

Chain of PD-1/PD-L1 (Q9NZQ7 other isoform, or with tags, fused parts or gaps): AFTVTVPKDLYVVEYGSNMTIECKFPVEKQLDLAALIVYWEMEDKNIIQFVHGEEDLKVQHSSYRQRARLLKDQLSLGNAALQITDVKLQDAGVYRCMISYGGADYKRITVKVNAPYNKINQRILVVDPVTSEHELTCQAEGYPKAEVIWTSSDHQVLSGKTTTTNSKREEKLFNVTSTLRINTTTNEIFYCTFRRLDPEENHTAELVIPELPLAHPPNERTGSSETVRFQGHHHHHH

The assay concerns the target PD-1/PD-L1 (Homo sapiens (Human), UniProt Q9NZQ7). Nature of the assay: PD-1/PD-L1 Homogenous Time-Resolved Fluorescence (HTRF) binding assay. The following applies: PD-L1-His 10 nM, PD-1-Ig 20 nM. From the text: The ability of the compounds of formula (I) to bind to PD-L1 was investigated using a PD-1/PD-L1 Homogenous Time-Resolved Fluorescence (HTRF) binding assay.
Homogenous Time-Resolved Fluorescence (HTRF) binding assay.
The interaction of PD-1 and PD-L1 can be assessed using soluble, purified preparations of the extracellular domains of the two proteins. The PD-1 and PD-L1 protein extracellular domains were expressed as fusion proteins with detection tags, for PD-1, the tag was the Fc portion of Immunoglobulin (PD-1-Ig) and for PD-L1 it was the 6 histidine motif (PD-L1-His). All binding studies were performed in an HTRF assay buffer consisting of dPBS supplemented with 0.1% […] bovine serum albumin and 0.05% (v/v) Tween-20. For the h/PD-L1-His binding assay, inhibitors were pre-incubated with PD-L1-His (10 nM final) for 15m in 4 μl of assay buffer, followed by addition of PD-1-Ig (20 nM final) in 1 µl of assay buffer and further incubation for 15m. HTRF detection was achieved using europium crypate-labeled anti-Ig (1 nM final) and allophycocyanin (APC) labeled anti-His (20 nM final). Antibodies were diluted in HTRF detection buffer and 5 μl was dispensed on top of the binding reaction. The reaction mixture was allowed to equilibrate for 30 minutes and the resulting signal (665 nm/620 nm ratio) was obtained using an EnVision fluorometer. Additional binding assays were established between the human proteins PD-1-Ig/PD-L2-His (20 & 5 nM, respectively) and CD8O-His/PD-L1-Ig (100 & 10 nM, respectively).
Recombinant Proteins: Human PD-1 (25-167) with a C-terminal human Fc domain of immunoglobulin G (Ig) epitope tag [hPD-1 (25-167)-3S-IG] and human PD-L1 (18-239) with a C-terminal His epitope tag [hPD-L1(18-239)-TVMV-His] were expressed in HEK293T cells and purified sequentially by ProteinA affinity chromatography and size exclusion chromatography. Human PD-L2-His and CD8O-His was obtained through commercial sources.
The table below lists the IC50 values for representative examples of this disclosure measured in the PD-1/PD-L1 Homogenous Time-Resolved Fluorescence (HTRF) binding assay.
Take `Cc1c(OCCCN2CC[C@@H](O)C2)cccc1-c1cccc2c1CCC2Oc1cc(OCc2cncc(C#N)c2)c(CO)cc1Cl` (stereo partly drawn) [Example 1013, 5-((4-Chloro-2-(hydroxymethyl)-5-((4-(3-(3-((R)-3-hydroxypyrrolidin-1-yl)propoxy)-2-methylphenyl)-2,3-dihydro-1H-inden-1-yl)oxy)phenoxy)methyl)nicotinonitrile]: the IC50 is 18.1 nM.

`CN1CCC[C@H](COc2cccc(-c3cccc4c3CC[C@H]4Oc3cc(OCc4cncc(C#N)c4)c(CO)cc3Cl)c2Cl)C1` [Example 1011, 5-((4-chloro-5-(((R)-4-(2-chloro-3-(((S)-1-methylpiperidin-3-yl)methoxy)phenyl)-2,3-dihydro-1H-inden-1-yl)oxy)-2-(hydroxymethyl)phenoxy)methyl)nicotinonitrile]: the IC50 was determined as 10.4 nM. Against the preceding compound, the IC50 is about 1.7-fold lower.

`C[C@](CO)(NCc1cc(Cl)c(OC2CCc3c(-c4cccc(OCCCNC[C@H](O)CO)c4Cl)cccc32)cc1OCc1cncc(C#N)c1)C(=O)O` (stereo partly drawn) [Example 1019, (2R)-2-((5-chloro-4-((4-(2-chloro-3-(3-(((S)-2,3-dihydroxypropyl)amino)propoxy)phenyl)-2,3-dihydro-1H-inden-1-yl)oxy)-2-((5-cyanopyridin-3-yl)methoxy)benzyl)amino)-3-hydroxy-2-methylpropanoic acid] had an IC50 of 2.5 nM. Against the preceding compound, the IC50 is about 4.2-fold lower.

In turn, `CN1CCCC(COc2cccc(-c3cccc4c3CCC4Oc3cc(OCc4cncc(C#N)c4)c(CO)cc3Cl)c2Cl)C1` (stereo not shown) [Example 1003, 5-((4-Chloro-5-((4-(2-chloro-3-((1-methylpiperidin-3-yl)methoxy)phenyl)-2,3-dihydro-1H-inden-1-yl)oxy)-2-(hydroxymethyl)phenoxy)-methyl)nicotinonitrile] gave an IC50 of 9.1 nM.

Consider `Cc1c(OCCCN2CC[C@@H](O)C2)cccc1-c1cccc2c1CCC2Oc1cc(OCc2cncc(C#N)c2)c(CN[C@@H](CCO)C(=O)O)cc1Cl` (stereo partly drawn) [Example 1015, (5-chloro-2-((5-cyanopyridin-3-yl)methoxy)-4-((4-(3-(3-((R)-3-hydroxypyrrolidin-1-yl)propoxy)-2-methylphenyl)-2,3-dihydro-1H-inden-1-yl)oxy)benzyl)-L-homoserine], for which the IC50 was 1.9 nM. Against the preceding compound, the IC50 is about 4.8-fold lower.

Consider `CN1CCC[C@H](COc2cccc(-c3cccc4c3CC[C@@H]4Oc3cc(OCc4cncc(C#N)c4)c(CN[C@](C)(CO)C(=O)O)cc3Cl)c2Cl)C1` [Example 1008, (R)-2-((5-chloro-4-(((S)-4-(2-chloro-3-(((S)-1-methylpiperidin-3-yl)methoxy)phenyl)-2,3-dihydro-1H-inden-1-yl)oxy)-2-((5-cyanopyridin-3-yl)methoxy)benzyl)amino)-3-hydroxy-2-methylpropanoic acid], for which the half-inhibitory concentration (IC50) is 3 nM.

For `CN1CCCC(COc2cccc(-c3cccc4c3CCC4Oc3cc(OCc4cncc(C#N)c4)c(CN[C@](C)(CO)C(=O)O)cc3Cl)c2Cl)C1` (stereo partly drawn) [Example 1002, (2R)-2-((5-Chloro-4-((4-(2-chloro-3-((1-methylpiperidin-3-yl)methoxy)phenyl)-2,3-dihydro-1H-inden-1-yl)oxy)-2-((5-cyanopyridin-3-yl)methoxy)benzyl)amino)-3-hydroxy-2-methylpropanoic acid], the IC50 came out at 0.9 nM.

In turn, `N#Cc1cncc(COc2cc(OC3CCc4c(-c5cccc(OCCCNC[C@H](O)CO)c5Cl)cccc43)c(Cl)cc2CN[C@@H](CCO)C(=O)O)c1` (stereo partly drawn) [Example 1021, (5-Chloro-4-((4-(2-chloro-3-(3-(((S)-2,3-dihydroxypropyl)amino)propoxy)phenyl)-2,3-dihydro-1H-inden-1-yl)oxy)-2-((5-cyanopyridin-3-yl)methoxy)benzyl)-L-homoserine] registered an IC50 of 1 nM.

As for `CN1CCC[C@@H](COc2cccc(-c3cccc4c3CC[C@@H]4Oc3cc(OCc4cncc(C#N)c4)c(CN[C@](C)(CO)C(=O)O)cc3Cl)c2Cl)C1` [Example 1004], the IC50 was 3.9 nM. This IC50 lies about 3.9-fold higher than the previous one.

Compound `CC(=O)NC1CCN(CCCOc2cccc(-c3cccc4c3CCC4Oc3cc(OCc4cncc(C#N)c4)c(CN[C@@H](CCO)C(=O)O)cc3Cl)c2Cl)CC1` (stereo partly drawn) [Example 1018, (4-((4-(3-(3-(4-Acetamidopiperidin-1-yl)propoxy)-2-chlorophenyl)-2,3-dihydro-1H-inden-1-yl)oxy)-5-chloro-2-((5-cyanopyridin-3-yl)methoxy)benzyl)-L-homoserine] showed an IC50 of 2.9 nM.

On to `CN1CCCC(COc2cccc(-c3cccc4c3CCC4Oc3cc(OCc4cncc(C#N)c4)c(CN4CCCC[C@H]4C(=O)O)cc3Cl)c2Cl)C1` (stereo partly drawn) [Example 1001, (2S)-1-(5-Chloro-4-((4-(2-chloro-3-((1-methylpiperidin-3-yl)methoxy)phenyl)-2,3-dihydro-1H-inden-1-yl)oxy)-2-((5-cyanopyridin-3-yl)methoxy)benzyl)piperidine-2-carboxylic acid], for which the half-inhibitory concentration (IC50) was determined as 1.4 nM.

For `CN1CCC[C@H](COc2cccc(-c3cccc4c3CC[C@H]4Oc3cc(OCc4cncc(C#N)c4)c(CN[C@](C)(CO)C(=O)O)cc3Cl)c2Cl)C1` [Example 1010, (R)-2-((5-chloro-4-(((R)-4-(2-chloro-3-(((S)-1-methylpiperidin-3-yl)methoxy)phenyl)-2,3-dihydro-1H-inden-1-yl)oxy)-2-((5-cyanopyridin-3-yl)methoxy)benzyl)amino)-3-hydroxy-2-methylpropanoic acid], the IC50 stood at 2 nM.

The compound `CN1CCC[C@H](COc2cccc(-c3cccc4c3CC[C@@H]4Oc3cc(OCc4cncc(C#N)c4)c(CO)cc3Cl)c2Cl)C1` [Example 1009, 5-((4-chloro-5-(((S)-4-(2-chloro-3-(((S)-1-methylpiperidin-3-yl)methoxy)phenyl)-2,3-dihydro-1H-inden-1-yl)oxy)-2-(hydroxymethyl)phenoxy)methyl)nicotinonitrile] registered an IC50 of 24.1 nM.

The compound `CN1CCC[C@@H](COc2cccc(-c3cccc4c3CC[C@@H]4Oc3cc(OCc4cncc(C#N)c4)c(CO)cc3Cl)c2Cl)C1` [Example 1005, 5-((4-chloro-5-(((S)-4-(2-chloro-3-(((R)-1-methylpiperidin-3-yl)methoxy)phenyl)-2,3-dihydro-1H-inden-1-yl)oxy)-2-(hydroxymethyl)phenoxy)methyl)nicotinonitrile] displayed an IC50 of 10.6 nM.

`CN1CCC[C@@H](COc2cccc(-c3cccc4c3CC[C@H]4Oc3cc(OCc4cncc(C#N)c4)c(CN[C@](C)(CO)C(=O)O)cc3Cl)c2Cl)C1` [Example 1006, (R)-2-((5-chloro-4-(((R)-4-(2-chloro-3-(((R)-1-methylpiperidin-3-yl)methoxy)phenyl)-2,3-dihydro-1H-inden-1-yl)oxy)-2-((5-cyanopyridin-3-yl)methoxy)benzyl)amino)-3-hydroxy-2-methylpropanoic acid] showed an IC50 of 3.5 nM. This IC50 lies about 3-fold lower than the previous one.

Compound `CC(=O)NC1CCN(CCCOc2cccc(-c3cccc4c3CCC4Oc3cc(OCc4cncc(C#N)c4)c(CN[C@](C)(CO)C(=O)O)cc3Cl)c2Cl)CC1` (stereo partly drawn) [Example 1016, (2R)-2-((4-((4-(3-(3-(4-Acetamidopiperidin-1-yl)propoxy)-2-chlorophenyl)-2,3-dihydro-1H-inden-1-yl)oxy)-5-chloro-2-((5-cyanopyridin-3-yl)methoxy)benzyl)amino)-3-hydroxy-2-methylpropanoic acid] came in with an IC50 of 3.4 nM.

For the compound `CC(=O)NC1CCN(CCCOc2cccc(-c3cccc4c3CCC4Oc3cc(OCc4cncc(C#N)c4)c(CN4CCCC[C@H]4C(=O)O)cc3Cl)c2Cl)CC1` (stereo partly drawn) [Example 1017, (2S)-1-(4-((4-(3-(3-(4-Acetamidopiperidin-1-yl)propoxy)-2-chlorophenyl)-2,3-dihydro-1H-inden-1-yl)oxy)-5-chloro-2-((5-cyanopyridin-3-yl)methoxy)benzyl)piperidine-2-carboxylic acid], the IC50 was determined as 0.2 nM.

In the case of `Cc1c(OCCCN2CC[C@@H](O)C2)cccc1-c1cccc2c1CCC2Oc1cc(OCc2cncc(C#N)c2)c(CN2CCCC[C@H]2C(=O)O)cc1Cl` (stereo partly drawn) [Example 1014, (2S)-1-(5-Chloro-2-((5-cyanopyridin-3-yl)methoxy)-4-((4-(3-(3-((R)-3-hydroxypyrrolidin-1-yl)propoxy)-2-methylphenyl)-2,3-dihydro-1H-inden-1-yl)oxy)benzyl)-piperidine-2-carboxylic acid], the IC50 came out at 5.8 nM. This IC50 is about 29-fold higher than that of the compound before.

The compound `Cc1c(OCCCN2CC[C@@H](O)C2)cccc1-c1cccc2c1CCC2Oc1cc(OCc2cncc(C#N)c2)c(CN[C@](C)(CO)C(=O)O)cc1Cl` (stereo partly drawn) [Example 1012, (2R)-2-((5-Chloro-2-((5-cyanopyridin-3-yl)methoxy)-4-((4-(3-(3-((R)-3-hydroxypyrrolidin-1-yl)propoxy)-2-methylphenyl)-2,3-dihydro-1H-inden-1-yl)oxy)benzyl)-amino)-3-hydroxy-2-methylpropanoic acid] yielded an IC50 of 1.8 nM.
